Assay results taken from US12605412B2, “Microbial compositions for improving the efficacy of anticancer treatments based on immune checkpoint inhibitors and/or tyrosine kinase inhibitors and markers of responsiveness to such treatments” (INSTITUT GUSTAVE ROUSSY, priority 2019, dated 2026).

System: advanced renal cell carcinoma
Assay: Clinical outcome of nivolumab (anti-PD-1) in RCC patients of the NIVOREN trial, stratified by antibiotic use
Format: in vivo, human
Experimental: The patients were included from Gustave Roussy Cancer Campus, France. Inclusion criteria were patients with stage IV clear cell or non-clear cell RCC histology and disease progression during or after >1 prior anti-angiogenic therapy regimens who received nivolumab intravenously (i.v.) 3 mg/kg every 2 weeks until disease progression or intolerable toxicity in the NIVOREN GETUG-AFU 26 Phase II trial (EudraCT: 2015-004117-24) (Albiges et al., 2018). Computer tomography (CT) scans were performed at baseline and every 8 to 12 weeks for the first year and then every 12 to 15 weeks until disease progression. Tumor response was assessed using the Response Evaluation Criteria in Solid Tumors version 1.1 (RECIST v1.1) (Eisenhauer et al., 2009). […] We evaluated objective response rate defined as the number of patients with a complete response and a partial response. The best overall response was defined as the investigator-assessed best response (complete response, partial response, stable disease, or progressive disease) from the start date of nivolumab to objectively documented disease progression or subsequent therapy, whichever occurred first. […] Forty patients were analyzed in addition to 60 non-small cell lung cancer patients in the Science 2018 paper (Routy et al., 2018). […] For the first time, RCC were analyzed as a single and independent cohort in this paper. […]

## nivolumab [ICB]
RCC patients on nivolumab, noATB subgroup, RECIST v1.1
  objective response rate (ORR): 28%
No ATB subgroup during ICB therapy
  primary resistance: 33%
